Values quoted from earlier work, collected in PMC2895553 (Journal of the American Chemical Society, 2010).

Tested on: αvβ3 integrin

In the case of “cyclo(-Arg-Gly-Asp-DPhe-(Me)Val-] [Cilengitide]”, the “activity as inhibitor for the αvβ3 integrin” value is given as 0.5 nM.
